Measured values: patent US20210038607A1, “OXADIAZOLYLTHIOPHENE DERIVATIVES USEFUL AS HISTONE DEACETYLASE INHIBITORS” (Karus Therapeutics Limited, priority 2018, published 2021)
pEC50: −log10 of the molar value.

Experiments:
[1] = biological target: T1, Human HDAC8 (Homo sapiens, UniProt Q9BY41); experiment: HDAC8 biochemical assay, AMC-labeled peptide substrate; settings: read-out: HDAC Isoform IC50 (nM) 8
T1 construct: full length with C-terminal His tag, MW=42.6 kDa; His (C); host or cells: baculovirus expression system
T1 sequence (Q9BY41 1-377): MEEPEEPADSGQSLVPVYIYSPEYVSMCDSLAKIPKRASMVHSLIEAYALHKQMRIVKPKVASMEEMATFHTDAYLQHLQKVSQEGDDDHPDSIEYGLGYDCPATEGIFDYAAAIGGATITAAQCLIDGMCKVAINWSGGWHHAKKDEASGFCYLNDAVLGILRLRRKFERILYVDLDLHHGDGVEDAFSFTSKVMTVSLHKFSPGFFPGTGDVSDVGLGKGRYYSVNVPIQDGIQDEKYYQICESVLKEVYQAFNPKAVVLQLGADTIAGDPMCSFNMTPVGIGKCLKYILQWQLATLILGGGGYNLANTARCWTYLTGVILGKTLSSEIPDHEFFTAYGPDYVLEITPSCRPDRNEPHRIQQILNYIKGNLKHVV
Method: (§1) Activity against all zinc-dependent HDACs 1 to 11 was assessed by using an acetylated AMC-labeled peptide substrate. The substrate RHKK(Ac)AMC was used for HDAC1, HDAC2, HDAC3, HDAC6 and HDAC10; the substrate used for HDAC8 was RHK(Ac)K(Ac)AMC. Activity against the class IIa HDACs (HDAC4, 5, 7, 9) and HDAC11 was determined using a class IIa-specific substrate, BOC-Lys(trifluoroacetyl)-AMC (“Trifluoroacetyl Lysine”; see Lahm et al, 2007, PNAS, 104, 17335-17340). All assays were based on the AMC-labeled substrate and developer combination.
(§2) The protocol involved a two-step reaction: first, the substrate with the acetylated lysine side chain is incubated with a sample containing HDAC activity, to produce the deacetylated products, which are then digested in the second step by the addition of developer to produce the fluorescent signal proportional to the amount of deacetylated substrates.
Human HDAC8 (GenBankAccession No. NM_018486), full length with C-terminal His tag, MW=42.6 kDa, expressed in a baculovirus expression system.
(§3) Assay Buffer: 50 mM Tris-HCl, pH8.0, 137 mM NaCl, 2.7 mM KCl, 1 mM MgC2. Before use, 1 mg/mL BSA and DMSO are added.
HDAC8: 1 ng/ul HDAC8 and 100 µM HDAC8 substrate are in the reaction buffer with 1% DMSO final. Incubate for 2 hours at 30° C.
(§4) Stage 1: Deacetylation of substrate by incubation of HDAC enzymes with compounds
(§5) Stage 2: Development by addition of Developer to digest the deacetylated substrate, and generate the fluorescent colour; Detection: 360/460 Ex/Em

[2] = tested on: acetylated histone H3 in A549 lung adenocarcinoma cells; experiment: Acetylated histone H3 in-cell western (ICW) assay; type: cell-based; settings: Homo sapiens, 16 h exposure, relative to 40 μM Trichostatin A positive control, read-out: EC50 Ac-histone H3, A549 cells
Method: Acetylated α-Tubulin and Histone H3 in-Cell Western (ICW) Assays
A549 cells were maintained in DMEM (Life Technologies)+10% FBS+2 mM glutamine & penicillin (10 μg/mL) and streptomycin ([…]. 10,000 A549 cells per well were plated into 96 well tissue culture plates (Corning) and incubated at 37° C. overnight in a humidified atmosphere containing 5% CO2 prior to addition of compounds. Compounds (dissolved in 100% DMSO) were diluted into cell culture media at 2× final assay concentration. 2× compound or DMSO (negative control) were added to cells (final DMSO concentration 0.4%). Untreated control wells received media. For acetylated α-tubulin assays, 40 μM scriptaid was used as a positive control. For acetylated histone H3 assays, 40 μM Trichostatin A (TSA) was used as a positive control. Cells were exposed to compound at 37° C. in a humidified atmosphere containing 5% CO2 for 16 h.
Measurement of the impact of compounds on levels of acetylated α-tubulin and histone H3 was performed using specific antibodies and near-infrared immunofluorescent dyes. Briefly, media was removed from wells of assay plates. Cells were washed once with PBS and fixed in 3.7% formaldehyde PBS solution at room temperature for 20 min. Cells were then permeabilised by washing 5 times in 0.1% triton-X-100 PBS at room temperature with gentle agitation for 5 min per wash. Non-specific antibody staining was blocked by the addition of Odyssey blocking buffer (Li-Cor) for 1.5 h at room temperature with gentle agitation. Cells were then incubated with primary antibody (mouse monoclonal anti-acetylated α-tubulin (clone 6-11B-1), Sigma or rabbit polyclonal anti-acetylated histone H3, Millipore) diluted in Odyssey blocking buffer at 4° C. with gentle shaking overnight (no antibody control and secondary antibody only wells were incubated with Odyssey blocking buffer only). Cells were washed five times with 0.1% tween PBS and labelled with secondary antibody (IR dye 800CW-conjugated goat anti mouse IgG or -goat anti rabbit IgG, Li-Cor) and cell stains Sapphire700 (Li-Cor) and Draq5 (Biostatus) diluted in Odyssey blocking buffer at room temperature in the dark with gentle shaking for 1 h (no antibody control wells were incubated with Odyssey blocking buffer only and secondary antibody only with diluted secondary antibody but no cell stains). Cells were washed with 0.1% Tween PBS five times and scanned using a Li-Cor Odyssey SA plate reader in 700 and 800 nm channels. Acetylated α-tubulin or histone H3 signal was normalised to cell number using the cell stain signal. Percentage increase in acetylated α-tubulin or histone H3 after compound treatment over the mean of DMSO treated controls, relative to scriptaid and TSA positive controls, respectively was calculated. EC50 values were calculated using GraphPad Prism software and nonlinear regression with 0% bottom and 100% top constraints.

[3] = biological target: T2, Human HDAC4 (Homo sapiens, UniProt P56524); experiment: HDAC4 biochemical assay, class IIa-specific substrate; settings: read-out: HDAC Isoform IC50 (nM) 4
T2 construct: amino acids 627-1085 with N-terminal GST tag; GST (N); host or cells: baculovirus expression system
In short: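 Two-step fluorogenic read-out: deacetylated BOC-Lys(trifluoroacetyl)-AMC (50 μM) was digested by developer and measured at Ex/Em 360/460. Deacetylation by 0.004 ng/ul HDAC4 (aa 627-1085, N-terminal GST) ran 30 min at room temperature, pH 8.0 Tris buffer, 1 mg/mL BSA, 1% DMSO.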

[4] = biological target: T3, Complex of human HDAC3 and human NCOR2 (Homo sapiens, UniProt O15379); experiment: HDAC3 biochemical assay, AMC-labeled peptide substrate; settings: read-out: HDAC Isoform IC50 (nM) 3
T3 construct: full length with C-terminal His tag, MW=49.7 kDa; His (C); host or cells: baculovirus expression system (co-expressed)
Method: as §1, §2
Complex of human HDAC3 (GenBank Accession No. NM_003883), full length with C-terminal His tag, MW=49.7 kDa, and human NCOR2 (amino acid 395-489) (GenBank Accession No. NM_006312), N-terminal GST tag, MW=37.6 kDa, co-expressed in baculovirus expression system.
as §3
HDAC3: 0.1 ng/ul HDAC3 and 50 μM HDAC substrate are in the reaction buffer with 1% DMSO final. Incubate for 1 hour at 30° C.
as §4, §5

T2 sequence (P56524 627-1084 limits assumed): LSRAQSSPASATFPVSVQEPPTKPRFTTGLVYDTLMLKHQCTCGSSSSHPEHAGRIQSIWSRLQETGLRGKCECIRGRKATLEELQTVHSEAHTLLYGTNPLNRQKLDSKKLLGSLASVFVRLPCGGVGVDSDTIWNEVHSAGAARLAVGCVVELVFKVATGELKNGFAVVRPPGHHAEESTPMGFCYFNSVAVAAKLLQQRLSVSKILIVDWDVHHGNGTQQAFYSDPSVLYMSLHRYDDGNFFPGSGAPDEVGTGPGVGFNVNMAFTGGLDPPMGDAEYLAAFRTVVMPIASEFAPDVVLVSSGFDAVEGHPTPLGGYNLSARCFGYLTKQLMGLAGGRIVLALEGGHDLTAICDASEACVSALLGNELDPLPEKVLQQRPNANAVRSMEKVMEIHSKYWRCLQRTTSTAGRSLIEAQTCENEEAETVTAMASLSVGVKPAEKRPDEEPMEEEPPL
T3 sequence (O15379 whole entry, canonical isoform): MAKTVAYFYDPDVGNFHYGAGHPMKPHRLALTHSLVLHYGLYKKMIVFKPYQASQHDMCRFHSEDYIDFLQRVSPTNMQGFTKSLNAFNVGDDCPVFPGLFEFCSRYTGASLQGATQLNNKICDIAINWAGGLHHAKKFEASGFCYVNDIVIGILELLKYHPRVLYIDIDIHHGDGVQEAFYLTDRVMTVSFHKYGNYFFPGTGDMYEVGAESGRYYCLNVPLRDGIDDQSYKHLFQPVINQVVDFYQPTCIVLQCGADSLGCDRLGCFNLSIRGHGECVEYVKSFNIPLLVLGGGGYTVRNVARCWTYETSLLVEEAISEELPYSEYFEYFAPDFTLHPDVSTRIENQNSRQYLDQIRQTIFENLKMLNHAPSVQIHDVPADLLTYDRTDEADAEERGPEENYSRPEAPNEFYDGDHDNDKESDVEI
T3 sequence (Q9Y618 395-489 partner limits assumed): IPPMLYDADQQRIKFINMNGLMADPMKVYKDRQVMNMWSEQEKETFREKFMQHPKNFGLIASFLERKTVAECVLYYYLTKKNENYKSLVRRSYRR

IC50 [1]	pEC50 [2]	IC50 [3]	IC50 [4]	Structure (SMILES)
≤ 10000 nM	≤ 5.00	≤ 10000 nM	≤ 10000 nM	COC1(C(F)(F)F)CN(C(=O)c2cnnc(N(Cc3ccc(-c4noc(C(F)(F)F)n4)s3)c3cnccn3)c2)C1 [Example GL, 5-[3-Methoxy-3-(trifluoromethyl)azetidine-1-carbonyl]-N-(pyrazin-2-yl)-N-({5-[5-(trifluoromethyl)-1,2,4-oxadiazol-3-yl]thiophen-2-yl}methyl)pyridazin-3-amine]
≤ 10000 nM	≤ 5.00	≤ 1000 nM	> 10000 nM	O=C(c1cnnc(N(Cc2ccc(-c3noc(C(F)(F)F)n3)s2)c2cnccn2)c1)N1CCC12COC2 [Example GF, 5-{6-Oxa-1-azaspiro[3.3]heptane-1-carbonyl}-N-(pyrazin-2-yl)-N-({5-[5-(trifluoromethyl)-1,2,4-oxadiazol-3-yl]thiophen-2-yl}methyl)pyridazin-3-amine]
≤ 10000 nM	≤ 5.00	≤ 1000 nM	≤ 10000 nM	O=C(c1cnnc(N(Cc2ccc(-c3noc(C(F)(F)F)n3)s2)c2cnccn2)c1)N1CC(C(F)(F)F)C1 [Example GJ, N-(Pyrazin-2-yl)-N-({5-[5-(trifluoromethyl)-1,2,4-oxadiazol-3-yl]thiophen-2-yl}methyl)-5-[3-(trifluoromethyl)azetidine-1-carbonyl]pyridazin-3-amine]
≤ 10000 nM	≤ 5.00	≤ 10000 nM	> 10000 nM	O=C(c1nccnc1N(Cc1ccc(-c2noc(C(F)(F)F)n2)s1)c1cnccn1)N1CCC1 [Example GP, 3-(Azetidine-1-carbonyl)-N-(pyrazin-2-yl)-N-({5-[5-(trifluoromethyl)-1,2,4-oxadiazol-3-yl]thiophen-2-yl}methyl)pyrazin-2-amine]

Further lines, the compound ahead of its results:

Structure (SMILES)	IC50 [1]	pEC50 [2]	IC50 [3]	IC50 [4]
FC(F)(F)c1cnnc(N(Cc2ccc(-c3noc(C(F)(F)F)n3)s2)c2cnccn2)c1 [Example EF, N-(Pyrazin-2-yl)-5-(trifluoromethyl)-N-({5-[5-(trifluoromethyl)-1,2,4-oxadiazol-3-yl]thiophen-2-yl}methyl)pyridazin-3-amine]	≤ 10000 nM	≤ 5.00	≤ 10000 nM	> 10000 nM
O=C(c1cnnc(N(Cc2ccc(-c3noc(C(F)(F)F)n3)s2)c2cnccn2)c1)N1CC[S+]([O-])CC1 [Example FU, 4-{6-[(Pyrazin-2-yl)({5-[5-(trifluoromethyl)-1,2,4-oxadiazol-3-yl]thiophen-2-yl}methyl)amino]pyridazine-4-carbonyl}-1lambda4-thiomorpholin-1-one]	≤ 10000 nM	≤ 5.00	≤ 10000 nM	> 10000 nM
[O-][S+]1CCN(Cc2ccc(N(Cc3ccc(-c4noc(C(F)(F)F)n4)s3)c3cnccn3)nn2)CC1 [Example FO, 4-({6-[(Pyrazin-2-yl)({5-[5-(trifluoromethyl)-1,2,4-oxadiazol-3-yl]thiophen-2-yl}methyl)amino]pyridazin-3-yl}methyl)-1lambda4-thiomorpholin-1-one]	≤ 10000 nM	≤ 5.00	≤ 1000 nM	> 10000 nM
NC(=O)c1cnnc(N(Cc2ccc(-c3noc(C(F)(F)F)n3)s2)c2cnccn2)c1 [Example DX, 6-[(Pyrazin-2-yl)({5-[5-(trifluoromethyl)-1,2,4-oxadiazol-3-yl]thiophen-2-yl}methyl)amino]pyridazine-4-carboxamide]	≤ 10000 nM	≤ 5.00	≤ 1000 nM	≤ 10000 nM
O=C(c1ccc(N(Cc2ccc(-c3noc(C(F)(F)F)n3)s2)c2cnccn2)nn1)N1CCC2(COC2)C1 [Example FJ, 6-{2-Oxa-6-azaspiro[3.4]octane-6-carbonyl}-N-(pyrazin-2-yl)-N-({5-[5-(trifluoromethyl)-1,2,4-oxadiazol-3-yl]thiophen-2-yl}methyl)pyridazin-3-amine]	≤ 10000 nM	≤ 5.00	≤ 500 nM	≤ 10000 nM
O=C(c1cnnc(N(Cc2ccc(-c3noc(C(F)(F)F)n3)s2)c2cnccn2)c1)N1CCOCC1 [Example EB, 5-(Morpholine-4-carbonyl)-N-(pyrazin-2-yl)-N-({5-[5-(trifluoromethyl)-1,2,4-oxadiazol-3-yl]thiophen-2-yl}methyl)pyridazin-3-amine]	≤ 10000 nM	≤ 5.00	≤ 10000 nM	> 10000 nM
FC(F)(F)c1cnnc(N(Cc2ccc(-c3noc(C(F)(F)F)n3)s2)c2cc(C(F)(F)F)cnn2)c1 [Example EU, 5-(Trifluoromethyl)-N-({5-[5-(trifluoromethyl)-1,2,4-oxadiazol-3-yl]thiophen-2-yl}methyl)-N-[5-(trifluoromethyl)pyridazin-3-yl]pyridazin-3-amine]	–	≤ 5.00	≤ 10000 nM	–
FC(F)(F)c1cnnc(N(Cc2ccc(-c3noc(C(F)(F)F)n3)s2)c2cccnn2)c1 [Example ER, N-(Pyridazin-3-yl)-5-(trifluoromethyl)-N-({5-[5-(trifluoromethyl)-1,2,4-oxadiazol-3-yl]thiophen-2-yl}methyl)pyridazin-3-amine]	–	≤ 5.00	≤ 10000 nM	–
COc1cncc(N(Cc2ccc(-c3noc(C(F)(F)F)n3)s2)c2cc(C(F)(F)F)cnn2)n1 [Example EN, N-(6-Methoxypyrazin-2-yl)-5-(trifluoromethyl)-N-({5-[5-(trifluoromethyl)-1,2,4-oxadiazol-3-yl]thiophen-2-yl}methyl)pyridazin-3-amine]	–	≤ 5.00	≤ 10000 nM	–
